{"source": "patent US20240165281A1", "about": "“DUAL MODE RADIOTRACER AND THERAPEUTICS” (Technische Universität München, priority 2021, published 2024)", "key": {"[1]": {"test": "Octanol-water partition coefficient (log D7.4)", "type": "physicochemical", "settings": "PBS pH 7.4 / n-octanol, 177Lu-labelled", "experimental": "Octanol-Water Partition Coefficient (log D7.4)\nApproximately 1 MBq of the labelled tracer was dissolved in 1 mL of a 1:1 mixture (v/v) of PBS (pH 7.4) and n-octanol in a reaction vial (1.5 mL). After vigorous mixing of the suspension for 3 minutes at room temperature, the vial was centrifuged at 15000 g for 3 minutes (Biofuge 15, Heraus Sepatech, Osterode, Germany) and 100 μL aliquots of both layers were measured in a gamma counter. The experiment was repeated at least six times."}, "PSMA": {"molecular_target": "T1, PSMA (Homo sapiens, UniProt Q04609)", "T1 construct": "PSMA-positive LNCAP cells (300265; Cell Lines Service, Eppelheim, Germany); host or cells: LNCaP cells", "T1 sequence (Q04609 whole entry)": "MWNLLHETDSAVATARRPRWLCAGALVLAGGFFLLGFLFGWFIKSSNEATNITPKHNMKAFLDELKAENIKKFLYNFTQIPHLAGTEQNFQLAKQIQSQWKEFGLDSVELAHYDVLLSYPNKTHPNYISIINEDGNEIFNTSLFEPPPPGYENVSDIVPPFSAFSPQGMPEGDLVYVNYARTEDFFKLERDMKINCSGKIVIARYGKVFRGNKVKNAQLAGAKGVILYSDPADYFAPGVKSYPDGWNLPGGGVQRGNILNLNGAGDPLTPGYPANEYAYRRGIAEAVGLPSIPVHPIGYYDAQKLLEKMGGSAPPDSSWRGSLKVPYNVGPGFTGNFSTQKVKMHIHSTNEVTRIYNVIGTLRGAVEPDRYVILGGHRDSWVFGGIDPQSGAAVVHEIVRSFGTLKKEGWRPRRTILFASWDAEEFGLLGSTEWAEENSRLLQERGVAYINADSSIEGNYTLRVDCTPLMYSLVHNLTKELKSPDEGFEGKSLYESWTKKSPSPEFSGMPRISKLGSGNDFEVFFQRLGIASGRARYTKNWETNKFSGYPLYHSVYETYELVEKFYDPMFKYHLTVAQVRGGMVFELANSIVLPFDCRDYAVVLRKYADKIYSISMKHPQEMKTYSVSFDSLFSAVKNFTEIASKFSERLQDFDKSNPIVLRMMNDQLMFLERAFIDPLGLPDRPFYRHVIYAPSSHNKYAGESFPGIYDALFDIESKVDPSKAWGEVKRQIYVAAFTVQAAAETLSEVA", "test": "PSMA affinity (IC50), competition with [125I]I-BA-KuE on LNCaP cells", "type": "binding", "settings": "natLu complex, on ice 60 min, read-out: IC50", "experimental": "A mixture of trypsin and EDTA (0.05%, 0.02%) in PBS (Biochrom) was used in order to harvest cells. Cells were counted with a Neubauer hemocytometer (Paul Marienfeld, Lauda-Königshofen, Germany).\nAffinity Determinations (IC50)\nIn the case of metal-complexed ligands, the crude reaction mixture was diluted analogously, without further purification. Cells were harvested 24±2 hours prior to the experiment and seeded in 24-well plates (1.5×10^5 cells in 1 mL/well). […] The media of both steps were combined in one fraction and represent the amount of free radioligand. Afterwards, the cells were lysed with 250 μL of 1 M aqueous NaOH for at least 10 min. After a washing step (250 μL of 1 M NaOH), both fractions, representing the amount of bound ligand, were united. Quantification of all collected fractions was accomplished in a γ-counter. PSMA-affinity determinations were carried out at least three times per ligand."}, "LNCaP tumor-bearing mice": {"test_system": "LNCaP tumor-bearing mice", "test": "μSPECT/CT imaging with tumor uptake", "type": "in vivo", "experimental": "Static images were recorded of sacrificed mice, 24 h p.i. directly after blood collection, with an acquisition time of 45 min using the HE-GP-RM collimator and a step-wise multi-planar bed movement. For imaging studies, a MILabs VECTor4 small-animal SPECT/PET/OI/CT from MILabs (Utrecht, Netherlands) was applied. Furthermore, data were reconstructed using the MILabs-Rec software (version 10.02) and a pixel-based Similarity-Regulated Ordered Subsets Expectation Maximization (SROSEM) algorithm with a window-based scatter correction (20% below and 20% above the photopeak, respectively). Moreover, further data analysis was accomplished using the PMOD4.0 software acquired from PMOD TECHNOLOGIES LLC (Zurich, Switzerland) at defined settings (voxel size CT: 80 μm, voxel size SPECT: 0.8 mm, 1.6 mm (FWHM) Gaussian blurring post processing filter, with calibration factor in kBq/mL and decay correction and no attenuation correction)."}, "[2]": {"test": "Apparent molecular weight (MWapp)"}, "[3]": {"test_system": "LNCaP tumor-bearing male CB-17 SCID mice", "test": "Biodistribution studies 24 h p.i.", "protocol": "Approximately 3-7 MBq (0.1-0.2 nmol) of the radioactive-labelled PSMA inhibitors were injected into the tail vein of LNCaP tumor-bearing male CB-17 SCID mice and sacrificed after 24 h post injection. Selected organs were removed, weighted and measured in a γ-counter. Results are all decay corrected and given in % injected dose per gram of tissue (% iD/g). Tumor-to-organ ratios are calculated from animals' individual ratios and are given as mean±standard deviation."}, "[4]": {"settings": "mean, listed as [^177Lu]Lu-2C013"}}, "data": [{"smiles": "CC(C)(C)[Si](F)(c1ccc(C(=O)NC[C@@H](NC(=O)CN2CCN(CC(=O)O)CCN(CC(=O)O)CCN(CC(=O)O)CC2)C(=O)N[C@H](CO)C(=O)NCCC(=O)NCCC(=O)NCCC[C@@H](NC(=O)CC[C@H](NC(=O)N[C@@H](CCC(=O)O)C(=O)O)C(=O)O)C(=O)O)cc1)C(C)(C)C", "note": "[Compound 2C013]", "values": [{"measurement": "logD7.4", "setting": "[1]", "result": "−3.30 ± 0.06"}, {"measurement": "IC50", "setting": "PSMA", "result": 4.44, "unit": "nM"}, {"measurement": "kidney uptake (FIG. 5, in words)", "setting": "LNCaP tumor-bearing mice; 24 h p.i., versus [177Lu]rhPSMA-7.3 and [177Lu]PSMA-I&T", "result": "lower kidney uptake than the previously known compounds"}, {"measurement": "tumor uptake of the scanned mouse (FIG. 1)", "setting": "LNCaP tumor-bearing mice; μSPECT/CT scan, single animal", "result": 9.8, "unit": "% iD/g"}, {"measurement": "MWapp", "setting": "[2]", "result": 17.6, "unit": "kDa"}, {"measurement": "Kidneys (24 h)", "setting": "[3]; Table 1", "result": "0.95 ± 0.42", "unit": "% iD/g"}, {"measurement": "Tumor (24 h)", "setting": "[3]; Table 1", "result": "7.59 ± 1.23", "unit": "% iD/g"}, {"measurement": "In vivo biodistribution (24 h p.i.) blood", "setting": "[3]; Table 6", "result": "0.0013 ± 0.0007", "unit": "% iA/g"}, {"measurement": "In vivo biodistribution (24 h p.i.) kidney", "setting": "[3]; Table 6", "result": "0.95 ± 0.42", "unit": "% iA/g"}, {"measurement": "In vivo biodistribution (24 h p.i.) tumor", "setting": "[3]; Table 6", "result": "7.59 ± 1.23", "unit": "% iA/g"}, {"measurement": "uptake in adrenals", "setting": "[3]; mean", "result": 0.0618, "unit": "% iD/g"}, {"measurement": "uptake in blood", "setting": "[3]; mean", "result": 0.0013, "unit": "% iD/g"}, {"measurement": "uptake in intestine", "setting": "[3]; mean", "result": 0.3354, "unit": "% iD/g"}, {"measurement": "uptake in kidney", "setting": "[3]; mean", "result": 0.9488, "unit": "% iD/g"}, {"measurement": "uptake in liver", "setting": "[3]; mean", "result": 0.2519, "unit": "% iD/g"}, {"measurement": "uptake in lung", "setting": "[3]; mean", "result": 0.0438, "unit": "% iD/g"}, {"measurement": "uptake in pancreas", "setting": "[3]; mean", "result": 0.0165, "unit": "% iD/g"}, {"measurement": "uptake in parotid gl.", "setting": "[3]; mean", "result": 0.0554, "unit": "% iD/g"}, {"measurement": "uptake in spleen", "setting": "[3]; mean", "result": 0.3891, "unit": "% iD/g"}, {"measurement": "uptake in stomach", "setting": "[3]; mean", "result": 0.0846, "unit": "% iD/g"}, {"measurement": "uptake in tumor", "setting": "[3]; mean", "result": 7.5897, "unit": "% iD/g"}, {"measurement": "uptake in bone", "setting": "[3]; mean, listed as [^177Lu]2C013", "result": 0.037, "unit": "% iD/g"}, {"measurement": "uptake in heart", "setting": "[3]; mean, listed as [^177Lu]2C013", "result": 0.019, "unit": "% iD/g"}, {"measurement": "uptake in muscle", "setting": "[3]; mean, listed as [^177Lu]2C013", "result": 0.004, "unit": "% iD/g"}, {"measurement": "uptake in submand. gl.", "setting": "[3]; mean, listed as [^177Lu]2C013", "result": 0.036, "unit": "% iD/g"}, {"measurement": "uptake in bone", "setting": "[3]; [4]", "result": 0.0370, "unit": "% iD/g"}, {"measurement": "uptake in heart", "setting": "[3]; [4]", "result": 0.0190, "unit": "% iD/g"}, {"measurement": "uptake in muscle", "setting": "[3]; [4]", "result": 0.0040, "unit": "% iD/g"}, {"measurement": "uptake in submand. gl.", "setting": "[3]; [4]", "result": 0.0360, "unit": "% iD/g"}, {"measurement": "tumor-to-organ ratio adrenals", "setting": "[3]; n = 4, mean", "result": 131.27}, {"measurement": "tumor-to-organ ratio blood", "setting": "[3]; n = 4, mean", "result": 6891.48}, {"measurement": "tumor-to-organ ratio bone", "setting": "[3]; n = 4, mean", "result": 208.29}, {"measurement": "tumor-to-organ ratio heart", "setting": "[3]; n = 4, mean", "result": 403.61}, {"measurement": "tumor-to-organ ratio intestine", "setting": "[3]; n = 4, mean", "result": 60.29}, {"measurement": "tumor-to-organ ratio kidney", "setting": "[3]; n = 4, mean", "result": 9.04}, {"measurement": "tumor-to-organ ratio liver", "setting": "[3]; n = 4, mean", "result": 31.82}, {"measurement": "tumor-to-organ ratio lung", "setting": "[3]; n = 4, mean", "result": 189.80}, {"measurement": "tumor-to-organ ratio muscle", "setting": "[3]; n = 4, mean", "result": 2075.70}, {"measurement": "tumor-to-organ ratio pancreas", "setting": "[3]; n = 4, mean", "result": 492.10}, {"measurement": "tumor-to-organ ratio parotid gl.", "setting": "[3]; n = 4, mean", "result": 140.11}, {"measurement": "tumor-to-organ ratio spleen", "setting": "[3]; n = 4, mean", "result": 21.03}, {"measurement": "tumor-to-organ ratio stomach", "setting": "[3]; n = 4, mean", "result": 145.92}, {"measurement": "tumor-to-organ ratio submand. gl.", "setting": "[3]; n = 4, mean", "result": 211.04}, {"measurement": "Activity accumulation adrenals", "setting": "[3]; repeated dataset, n = 5, mean", "result": 0.1327, "unit": "% ID/g"}, {"measurement": "Activity accumulation blood", "setting": "[3]; repeated dataset, n = 5, mean", "result": 0.0016, "unit": "% ID/g"}, {"measurement": "Activity accumulation bone", "setting": "[3]; repeated dataset, n = 5, mean", "result": 0.1331, "unit": "% ID/g"}, {"measurement": "Activity accumulation heart", "setting": "[3]; repeated dataset, n = 5, mean", "result": 0.023, "unit": "% ID/g"}, {"measurement": "Activity accumulation intestine", "setting": "[3]; repeated dataset, n = 5, mean", "result": 0.0615, "unit": "% ID/g"}, {"measurement": "Activity accumulation kidney", "setting": "[3]; repeated dataset, n = 5, mean", "result": 1.0833, "unit": "% ID/g"}, {"measurement": "Activity accumulation liver", "setting": "[3]; repeated dataset, n = 5, mean", "result": 0.3202, "unit": "% ID/g"}, {"measurement": "Activity accumulation lung", "setting": "[3]; repeated dataset, n = 5, mean", "result": 0.0548, "unit": "% ID/g"}, {"measurement": "Activity accumulation muscle", "setting": "[3]; repeated dataset, n = 5, mean", "result": 0.0056, "unit": "% ID/g"}, {"measurement": "Activity accumulation pancreas", "setting": "[3]; repeated dataset, n = 5, mean", "result": 0.0173, "unit": "% ID/g"}, {"measurement": "Activity accumulation parotid gl.", "setting": "[3]; repeated dataset, n = 5, mean", "result": 0.063, "unit": "% ID/g"}, {"measurement": "Activity accumulation spleen", "setting": "[3]; repeated dataset, n = 5, mean", "result": 0.4246, "unit": "% ID/g"}, {"measurement": "Activity accumulation stomach", "setting": "[3]; repeated dataset, n = 5, mean", "result": 0.0349, "unit": "% ID/g"}, {"measurement": "Activity accumulation submand. gl.", "setting": "[3]; repeated dataset, n = 5, mean", "result": 0.038, "unit": "% ID/g"}, {"measurement": "Activity accumulation tumor", "setting": "[3]; repeated dataset, n = 5, mean", "result": 10.1512, "unit": "% ID/g"}, {"measurement": "tumor-to-organ ratio adrenals", "setting": "[3]; repeated dataset, n = 5, mean", "result": 78.58}, {"measurement": "tumor-to-organ ratio blood", "setting": "[3]; repeated dataset, n = 5, mean", "result": 6950.64}, {"measurement": "tumor-to-organ ratio bone", "setting": "[3]; repeated dataset, n = 5, mean", "result": 73.24}, {"measurement": "tumor-to-organ ratio heart", "setting": "[3]; repeated dataset, n = 5, mean", "result": 475.05}, {"measurement": "tumor-to-organ ratio intestine", "setting": "[3]; repeated dataset, n = 5, mean", "result": 263.86}, {"measurement": "tumor-to-organ ratio kidney", "setting": "[3]; repeated dataset, n = 5, mean", "result": 9.48}, {"measurement": "tumor-to-organ ratio liver", "setting": "[3]; repeated dataset, n = 5, mean", "result": 31.51}, {"measurement": "tumor-to-organ ratio lung", "setting": "[3]; repeated dataset, n = 5, mean", "result": 184.32}, {"measurement": "tumor-to-organ ratio muscle", "setting": "[3]; repeated dataset, n = 5, mean", "result": 1867.35}, {"measurement": "tumor-to-organ ratio pancreas", "setting": "[3]; repeated dataset, n = 5, mean", "result": 587.5}, {"measurement": "tumor-to-organ ratio parotid gl.", "setting": "[3]; repeated dataset, n = 5, mean", "result": 172.33}, {"measurement": "tumor-to-organ ratio spleen", "setting": "[3]; repeated dataset, n = 5, mean", "result": 25.43}, {"measurement": "tumor-to-organ ratio stomach", "setting": "[3]; repeated dataset, n = 5, mean", "result": 286.18}, {"measurement": "tumor-to-organ ratio submand. gl.", "setting": "[3]; repeated dataset, n = 5, mean", "result": 270.92}, {"measurement": "T/K-ratio", "setting": "[3]; tumor/kidney, Table 1", "result": "9.04 ± 3.09"}]}]}
